Consider four compounds from the NIST ThermoML archive (doi:10.1021/je020206a).

Molecules are shown by their SMILES. Numbers after ± are expanded uncertainties.

A short description of the series: wn = mass fraction of the nth substance listed. Particulars: 101.3 kPa, Liquid, w1 = 0.3.

As usually defined, the mass density is the mass of a sample divided by its volume. As usually defined, the viscosity is the resistance of a fluid to flow. With `CC(C)(N)CO` [2-amino-2-methylpropan-1-ol] + O, the mass density runs as follows: (293.15 K) 999.85 ± 1.1 kg/m3; (298.15 K) 997.41 ± 1.1 kg/m3; (303.15 K) 994.62 ± 1.1 kg/m3; (308.15 K) 991.22 ± 1.1 kg/m3; (313.15 K) 988.72 ± 1.2 kg/m3; (318.15 K) 986.24 ± 1.2 kg/m3. Moreover, the mass density (323.15 K) was 983.13 ± 1.3 kg/m3. Further, the viscosity is 4.89 ± 0.43 mPa·s (293.15 K); 3.79 ± 0.34 mPa·s (298.15 K); 3.21 ± 0.29 mPa·s (303.15 K); 2.8 ± 0.25 mPa·s (308.15 K); 2.24 ± 0.21 mPa·s (313.15 K); 1.92 ± 0.18 mPa·s (318.15 K). Where the note is “323.15 K”, the viscosity is listed as 1.58 ± 0.15 mPa·s.

As for `NCCO` [2-aminoethan-1-ol] + O, the mass density reads like this: (293.15 K) 1015.3 ± 1.1 kg/m3; (298.15 K) 1012.1 ± 1.1 kg/m3; (303.15 K) 1009.2 ± 1.1 kg/m3; (308.15 K) 1004.9 ± 1.1 kg/m3; (313.15 K) 1003.2 ± 1.2 kg/m3; (318.15 K) 1001 ± 1.2 kg/m3. In addition, for the setting “323.15 K”, the mass density was 997.76 ± 1.3 kg/m3. Moreover, the viscosity reads like this: (293.15 K) 2.63 ± 0.24 mPa·s; (298.15 K) 2.2 ± 0.2 mPa·s; (303.15 K) 2.1 ± 0.19 mPa·s; (308.15 K) 1.85 ± 0.17 mPa·s; (313.15 K) 1.6 ± 0.15 mPa·s; (318.15 K) 1.5 ± 0.14 mPa·s. The viscosity (323.15 K) came to 1.29 ± 0.12 mPa·s.

With `CN(CCO)CCO` [N-methyldiethanolamine] + O, the mass density by setting is: (293.15 K) 1032.2 ± 1.1 kg/m3; (298.15 K) 1027.5 ± 1.1 kg/m3; (303.15 K) 1023.1 ± 1.1 kg/m3; (308.15 K) 1019.9 ± 1.2 kg/m3; (313.15 K) 1018.2 ± 1.2 kg/m3; (318.15 K) 1014.2 ± 1.3 kg/m3. Moreover, the mass density (323.15 K) was 1011.2 ± 1.3 kg/m3. Besides, the viscosity is on record as 3.46 ± 0.31 mPa·s (293.15 K); 3.02 ± 0.27 mPa·s (298.15 K); 2.68 ± 0.24 mPa·s (303.15 K); 2.27 ± 0.21 mPa·s (308.15 K); 1.92 ± 0.18 mPa·s (313.15 K); 1.72 ± 0.16 mPa·s (318.15 K). Also, the viscosity (323.15 K) amounted to 1.49 ± 0.14 mPa·s.

With `OCCNCCO` [diethanolamine] + O, the mass density (293.15 K) is on record as 1042.7 ± 1.1 kg/m3; the mass density (298.15 K) turned out to be 1037.4 ± 1.1 kg/m3; the mass density (303.15 K) turned out to be 1033.2 ± 1.1 kg/m3; the mass density (308.15 K) is on record as 1029.1 ± 1.2 kg/m3; the mass density (313.15 K) was 1026.4 ± 1.2 kg/m3; the mass density (318.15 K) was found to be 1022.7 ± 1.3 kg/m3. Besides, the mass density (323.15 K) amounted to 1019.3 ± 1.3 kg/m3. The viscosity is, setting by setting: (293.15 K) 4.22 ± 0.37 mPa·s; (298.15 K) 3.26 ± 0.3 mPa·s; (303.15 K) 2.57 ± 0.23 mPa·s; (308.15 K) 2.51 ± 0.23 mPa·s; (313.15 K) 1.97 ± 0.18 mPa·s; (318.15 K) 1.72 ± 0.16 mPa·s. Further, the viscosity (323.15 K) was determined as 1.41 ± 0.13 mPa·s.
